Assay results reported in the supplement of paper PMC10307832.

Legend:
Assay in all cases: relative viability (nuclei count vs DMSO), 5 days (fraction); higher = more cells survive
AZ628 + OSI-027 = compound: CC1=C(C=C(C=C1)NC(=O)C2=CC(=CC=C2)C(C)(C)C#N)NC3=CC4=C(C=C3)N=CN(C4=O)C [AZ628] + COc1cccc2cc(-c3nc([C@H]4CC[C@H](C(=O)O)CC4)n4ncnc(N)c34)[nH]c12 [OSI-027] (partner 0.5 µM)
Outline: (§1)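 The day after seeding in 1536-well plates, lung cancer cell lines were treated by pin tool with a single drug, or with a fixed anchor-drug dose together with five library-drug doses (not always all listed) in √10 steps. After 5 days, a combined fix-and-stain solution (final 0.05% Triton X-100, 1% formaldehyde, 1 ug/ml Hoechst) was added. Nuclei counted on 4× images gave relative viability as treated counts over vehicle counts, reported as the median of duplicate plates.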

QS11 + OSI-027 = compound: C1CC2=C(C1)C=C(C=C2)OC3=NC(=C4C(=N3)N(C=N4)CC5=CC=C(C=C5)C6=CC=CC=C6)N[C@@H](CC7=CC=CC=C7)CO [QS11] + COc1cccc2cc(-c3nc([C@H]4CC[C@H](C(=O)O)CC4)n4ncnc(N)c34)[nH]c12 [OSI-027] (partner 0.5 µM)
Outline: as §1

QS11 + Vorinostat = compound: C1CC2=C(C1)C=C(C=C2)OC3=NC(=C4C(=N3)N(C=N4)CC5=CC=C(C=C5)C6=CC=CC=C6)N[C@@H](CC7=CC=CC=C7)CO [QS11] + O=C(CCCCCCC(=O)Nc1ccccc1)NO [Vorinostat] (partner 1 µM)
Outline: as §1

Darinaparsin + Alpelisib = compound: C[As](C)SC[C@H](NC(=O)CC[C@H](N)C(=O)O)C(=O)NCC(=O)O [Darinaparsin] + Cc1nc(NC(=O)N2CCC[C@H]2C(N)=O)sc1-c1ccnc(C(C)(C)C(F)(F)F)c1 [Alpelisib] (partner 2 µM)
Outline: as §1

Cell Line | relative viability (AZ628 + OSI-027; first compound 0.08 µM) | relative viability (AZ628 + OSI-027; first compound 0.253 µM) | relative viability (AZ628 + OSI-027; first compound 0.8 µM) | relative viability (AZ628 + OSI-027; first compound 2.53 µM) | relative viability (AZ628 + OSI-027; first compound 8 µM) | relative viability (QS11 + OSI-027; first compound 0.08 µM) | relative viability (QS11 + OSI-027; first compound 0.253 µM) | relative viability (QS11 + OSI-027; first compound 0.8 µM) | relative viability (QS11 + OSI-027; first compound 2.53 µM) | relative viability (QS11 + OSI-027; first compound 8 µM) | relative viability (QS11 + Vorinostat; first compound 0.08 µM) | relative viability (QS11 + Vorinostat; first compound 0.253 µM) | relative viability (QS11 + Vorinostat; first compound 0.8 µM) | relative viability (QS11 + Vorinostat; first compound 2.53 µM) | relative viability (QS11 + Vorinostat; first compound 8 µM) | relative viability (Darinaparsin + Alpelisib; first compound 0.08 µM) | relative viability (Darinaparsin + Alpelisib; first compound 0.8 µM) | relative viability (Darinaparsin + Alpelisib; first compound 2.53 µM) | relative viability (Darinaparsin + Alpelisib; first compound 8 µM)
NCI-H1666 | 0.827 | 0.789 | 0.676 | 0.744 | 0.656 | 0.856 | 0.696 | 0.667 | 0.604 | 0.606 | 1.04 | 1.09 | 0.924 | 0.713 | 0.73 | 1.11 | 0.967 | 1.14 | 1.06
COR-L23 | 0.678 | 0.669 | 0.602 | 0.558 | 0.302 | 0.756 | 0.881 | 0.568 | 0.475 | 0.444 | 0.397 | 0.334 | 0.469 | 0.301 | 0.282 | 1.02 | 0.707 | 0.585 | 0.893
NCI-H460 | 0.738 | 0.64 | 0.259 | 0.429 | 0.107 | 0.719 | 0.756 | 0.663 | 0.446 | 0.257 | 0.938 | 0.811 | 0.541 | 0.687 | 0.212 | 0.566 | 0.549 | 0.417 | 0.821
SK-MES-1 | 0.599 | 0.593 | 0.653 | 0.572 | 0.297 | 0.627 | 0.575 | 0.544 | 0.615 | 0.623 | 1.25 | 1.01 | 0.987 | 1.23 | 1.08 | 1.01 | 0.909 | 0.63 | 0.993
LC-2-ad | 0.817 | 0.87 | 0.779 | 0.821 | 0.703 | 0.783 | 0.413 | 0.873 | 0.847 | 0.79 | 0.748 | 0.739 | 0.531 | 0.671 | 0.74 | 0.954 | 0.832 | 0.856 | 1.01
BEN | 0.318 | 0.278 | 0.32 | 0.281 | 0.267 | 0.304 | 0.316 | 0.309 | 0.33 | 0.3 | 0.568 | 0.528 | 0.528 | 0.688 | 0.647 | 0.963 | 1.09 | 0.956 | 1.33
NCI-H1651 | 0.577 | 0.703 | 0.649 | 0.579 | 0.659 | 0.618 | 0.645 | 0.733 | 0.625 | 0.662 | 0.555 | 0.518 | 0.527 | 0.571 | 0.564 | 1.11 | 0.994 | 0.931 | 1.27
EKVX | 0.715 | 0.673 | 0.804 | 0.764 | 0.572 | 0.644 | 0.635 |  | 0.596 | 0.693 | 0.642 | 0.625 | 0.592 | 0.567 | 0.545 | 0.943 | 0.844 | 0.857 | 1.1
COR-L 105 | 0.751 | 0.837 | 0.795 | 0.763 | 0.46 | 0.711 | 0.521 | 0.547 | 0.629 | 0.447 | 0.838 | 1.03 | 0.665 | 0.794 | 0.716 | 1.34 | 1.21 |  | 1.08
HCC-15 | 0.751 | 0.582 | 0.461 | 0.433 | 0.236 | 0.641 | 0.674 | 0.646 | 0.665 | 0.475 | 0.861 | 0.944 | 0.651 | 0.84 | 0.648 | 0.914 | 0.95 | 0.867 | 1.08
SK-LU-1 |  | 0.315 | 0.276 | 0.33 | 0.208 | 0.321 | 0.327 | 0.326 | 0.254 | 0.291 | 0.786 | 0.849 | 0.604 | 0.572 | 0.614 | 1.11 | 0.956 | 0.797 | 1.06
LCLC-103H | 0.418 | 0.438 | 0.531 | 0.403 | 0.423 | 0.434 | 0.45 | 0.469 | 0.49 | 0.502 | 0.724 | 0.783 |  | 0.799 | 0.734 | 0.945 | 0.982 | 0.915 | 1.11
RERF-LC-KJ | 0.53 | 0.523 | 0.528 | 0.462 | 0.458 | 0.519 | 0.578 | 0.543 | 0.448 | 0.438 | 0.643 | 0.628 | 0.523 | 0.664 | 0.566 | 0.865 | 0.917 | 0.73 | 0.873
NCI-H2087 | 0.52 | 0.335 | 0.213 | 0.274 | 0.13 | 0.523 | 0.5 |  | 0.532 | 0.532 | 1.03 | 0.667 | 0.599 | 0.625 | 0.665 | 1.15 | 0.988 | 1.13 | 1.18
LOU-NH91 | 0.72 | 0.712 | 0.651 | 0.664 | 0.569 | 0.678 | 0.722 | 0.693 | 0.728 | 0.71 | 0.896 | 0.858 | 0.871 | 0.936 | 0.916 | 0.703 | 0.718 | 0.749 | 0.68
201T | 0.838 | 0.707 | 0.689 | 0.761 | 0.849 | 0.759 | 0.685 | 0.662 |  | 0.836 | 0.937 | 0.995 | 0.797 | 0.866 | 0.668 | 1.12 | 1.03 | 0.997 | 0.82
UMC-11 | 0.468 | 0.496 | 0.46 | 0.464 | 0.382 | 0.474 | 0.481 | 0.501 | 0.492 | 0.57 | 0.385 | 0.373 | 0.462 | 0.37 | 0.459 | 0.861 | 0.981 | 0.683 | 1.15
